Results: patent US20090068126A1, “Composition for surface photoprotection” (priority 2004, published 2009)

What was measured:
[1] = tested on: short hair line albino Guinea pigs; experiment: Phototoxicity in vivo; parameters: species or system guinea pig; conditions: 0.1 g %, only in the irradiated area
Protocol: The tests are accomplished in short hair line albino Guinea pigs (n=4). Twenty-four hours before the application of the test substance to 5% [tween/ethanol/water (1:1:10)], the animals dorsal portion hair are chemically removed. Four application sites are chosen, at random: 2 areas for the test substance and other 2 for the methoxypsoralen phototoxic standard at 0.1 g %, following by the UVA radiation exposition, and a control area is protected from the light. After 24 and 48 hours, the observations are made as for the erythema edema formation (AGÊNCIA NACIONAL DE VIGILÂNCIA SANITÁRIA-Brazil, Guia para avaliaçãa de segurança de produtos cosméticos. 2003.; Freitas, Z. M. F., I Ax, P. A., Dellamora-Ortiz, G. M., Santos, E. P., Gonçalves, J. C. S., 2000, S.T.P Pharma Sciences, 10 (3) 239-242; Dinardo, J. C., Wolf, B. A., Morris, W. E., Tenenbaum, S., Schnetzinger, R. W., 1985, J. Soc. Cosmet. Chem., 36, 425-433).

[2] = tested on: Saccharomyces cerevisiae yeast, wild type strain D273-10B; experiment: Phototoxicity test in Saccharomyces cerevisiae yeast (in vitro); assay type: cell-based
Source text: The method applied was used by Freitas (Freitas, Z. M. F., I Ax, P. A., Dellamora-Ortiz, G. M., Santos, E. P., Gonçalves, J. C. S., S.T.P Pharma Sciences, 2000, 10 (3): 239-242) for the Saccharomyces cerevisiae yeast use, wild type strain D273-10B, at room temperature, which dense cell layer is not sensitive to the ultraviolet radiation among 320-390 nm (UVA), besides being innocuous.
The yeast growth was in a YPD medium, constituted by yeast extract (1%), peptone (2%), anhydrous glucose (2%), agar (2%). […] The studied substances were applied in 1 g % concentration in Wharman no. 1 sterile filter paper disks, and fixed on the surface of culture media plates. A S. cerevisiae suspension was prepared in sterilized water (10 mL). Aliquots of 0.2 mL were applied and spread in the culture plates using a glass loop. Two plates were prepared for each sample. After seeding and applying the samples, one plate was allowed to grow under two UVA lamps (320-390 nm). A control plate was grown in the dark. […]

## COc1c2occc2cc2ccc(=O)oc12 [8-methoxypsoralen]
[1]; 24 hours
  erythema degree: 1
[1]; 48 hours
  erythema degree: 2
[2]; 0.1 g % in ethanol, plates in the light and in the dark
  growth inhibition halo: presented growth inhibition halo in the light
[2]; irradiated plate and plate with light absence
  phototoxic answer in the in vitro phototoxicity test: non-phototoxic
